Experiments:
[1] = Toxicokinetics (PK analysis) in Gottingen Minipigs; type: in vivo
Protocol: (§2) All groups received 2 mL of gel formulation, once a day, for 14 consecutive days, applied to approximately 10% of their body surface area on their backs.
Blood samples for chemistry and hematology analysis were collected as well as PK samples.
(§3) The estimated BBI-4000 dose applied to the skin in this study was 40 mg/kg/day for Group 3 and 20 mg/kg/day for Group 2.

[2] = test system: subjects with axillary hyperhidrosis; assay: Study BBI-4000-CL-101: hyperhidrosis disease severity scale (HDSS); type: in vivo, human
Protocol: (§1) Efficacy was assessed by the change in gravimetrically measured sweat production and the change in hyperhidrosis disease severity scale (HDSS) from baseline to Day 15 (end of therapy).
For the HDSS, subjects rated the severity of their hyperhidrosis on a 4-point scale (1, 2, 3, or 4) based on the level of interference with their daily activities.

[3] = Stability of approximately 2% BBI-4000 formulations in four solvent systems (HPLC); type: physicochemical; details: for Change from Baseline (40° C./75%), reduction: after 7 days at 40° C./75% humidity
Protocol: Various formulations of approximately 2% BBI-4000 were made and their stabilities assessed. The solvent systems were as follows:
(a) solvent content: 100% water;
(b) solvent content: 60% water/40% ethanol;
(c) solvent content: 30% water/70% ethanol;
(d) solvent content: 100% ethanol.
Each sample was assessed at baseline; after 7 days at 25° C./60% humidity; and after 7 days at 40° C./75% humidity. The percentage change from baseline for 40° C. after 7 days was calculated in each case. HPLC analysis was conducted as described in EXAMPLE 2 below.

[4] = Hydrolysis and stability testing of aqueous BBI-4000 formulations (HPLC); details: aqueous formulations of Table II
Protocol: An HPLC method was developed at a commercial laboratory for assaying the soft anticholinergic analog, and related substances (including hydrolysis products):
• High performance liquid chromatography (HPLC) system Chromatography data system • XBridge Shield RP18, 4.6×150 mm, 3.5 μm HPLC column • Analytical balance capable of weighing to 0.00001 g • Ultrasonic bath • Volumetric flasks, 1, 5 mL • Syringe Filter: 25 mm, 0.45 μm, HPF Millex-HV, Millipore or suitable alternative
• BBI-4000 standard • Water, HPLC grade • Acetonitrile (can), Optima grade • Trifluroacetic acid (TFA), Fisher • Mobile Phase “A”: 0.1% TFA in Water • Mobile Phase “B”: 0.1% TFA in Acetonitrile • Auto Sampler Flush: 1:1 Water:Acetonitrile • Diluent: Acetonitrile
The standards were prepared in duplicate by weighing 2.0±0.1 mg of BBI-4000 into 1 mL volumetric flasks. Dissolved and diluted to volume with acetonitrile and mixed by inversion.
The liquid chromatographic system was set-up as follows: • HPLC Column: XBridge Shield RP18, 4.6×150 mm, 3.5 μm • Column Temp.: 25±1° C. • Sample Temp.: ambiant • Flow Rate: 1.5 mL/min • Injection Volume: 10 μL • UV Detection: 220 nm • Run Time: 20 minutes
The HPLC assay was conducted on formulations at differing pH values, and the results were reviewed for “Time-Zero” and at 7 days at 40° C.:

Gottingen Minipigs = assay: 14-day dermal and systemic toxicity study in Gottingen Minipigs; details: anhydrous composition, 14 days
Protocol: as §2
The study included daily observations of the site of application and scoring of erythema and edema (if present), daily general examinations including heart rate as well as pupil size assessment at days 1, 2, 3, 5, 7, 10 and 14. The frequent observations of heart rate and pupil size were intended to identify any potential systemic anticholinergic effect. Main organs were evaluated during necropsy and histopathology evaluation was completed for treated and untreated skin. Blood samples for chemistry and hematology analysis were collected as well as PK samples.
as §3

[5] = test system: sweat production in subjects with axillary hyperhidrosis; assay: Study BBI-4000-CL-101: gravimetrically measured sweat production; type: in vivo, human
Protocol: as §1
For the gravimetric assessment, sweat production was measured by placing filter paper (pre-weighed) on the axilla for 5 minutes while the subject was in a semi-reclining position at room temperature. The filter paper was covered with plastic during exposure to the axilla, and was then weighed following the 5-minute exposure period to calculate the amount of sweat produced.

[6] = Solvent Content: 30% water, 70% Ethanol, Baseline
[7] = Solvent Content: 30% water, 70% Ethanol, Day 7 @ 25° C./60%
[8] = Solvent Content: 30% water, 70% Ethanol, Day 7 @ 40° C./75%
[9] = Solvent Content: 60% water, 40% Ethanol, Baseline
[10] = Solvent Content: 60% water, 40% Ethanol, Day 7 @ 25° C./60%
[11] = Solvent Content: 60% water, 40% Ethanol, Day 7 @ 40° C./75%
[12] = Solvent Content: 100% Ethanol, Baseline
[13] = Solvent Content: 100% Ethanol, Day 7 @ 25° C./60%
[14] = Solvent Content: 100% Ethanol, Day 7 @ 40° C./75%
[15] = Solvent Content: 100% Water, Baseline
[16] = Solvent Content: 100% Water, Day 7 @ 25° C./60%
[17] = Solvent Content: 100% Water, Day 7 @ 40° C./75%

CCOC(=O)C[N@+]1(C)CCC(OC(=O)[C@](O)(c2ccccc2)C2CCCC2)C1.[Br-] (stereo partly drawn) [BBI-4000, (2R,3′R) 3-(2-cyclopentyl-2-phenyl-2-hydroxyacetoxy)-1-(ethoxycarbonylmethyl)-1-methylpyrrolidinium bromide]
Systemic exposure of BBI-4000 (PK analysis) ([1]; 10% and 20% gel (20 and 40 mg/kg/day), topical, 14 days): variable, dose related systemic exposure | Time at which the highest concentration was observed ([1]; after Day-14 dosing, minipig receiving 20% BBI-4000 concentration): 2 h | Improvement in HDSS assessments compared to vehicle ([2]; Cohort 2, baseline to Day 15): greater improvement | Proportion of subjects reporting a 2-point improvement in HDSS ([2]; Day 15, aggregate of 5% and 10% gel (8 of 12)): 67% | BBI-4000 Assay [3, 6]: 1.99% | BBI-4000 Main Hydrolysis Products (RRT-0.79-0.84) [3, 6]: 0% | BBI-4000 Assay [3, 7]: 1.95% | BBI-4000 Main Hydrolysis Products (RRT-0.79-0.84) [3, 7]: 0.84% | BBI-4000 Assay [3, 8]: 1.89% | BBI-4000 Main Hydrolysis Products (RRT-0.79-0.84) [3, 8]: 3.50% | Change from Baseline (40° C./75%), reduction ([3]; Solvent Content: 30% water, 70% Ethanol): 5% | BBI-4000 Assay [3, 9]: 1.99% | BBI-4000 Main Hydrolysis Products (RRT-0.79-0.84) [3, 9]: 0% | BBI-4000 Assay [3, 10]: 1.94% | BBI-4000 Main Hydrolysis Products (RRT-0.79-0.84) [3, 10]: 0.83% | BBI-4000 Assay [3, 11]: 1.89% | BBI-4000 Main Hydrolysis Products (RRT-0.79-0.84) [3, 11]: 3.40% | Change from Baseline (40° C./75%), reduction ([3]; Solvent Content: 60% water, 40% Ethanol): 5% | BBI-4000 Assay [3, 12]: 2.02% | BBI-4000 Main Hydrolysis Products (RRT-0.79-0.84) [3, 12]: 0% | BBI-4000 Assay [3, 13]: 2% | BBI-4000 Main Hydrolysis Products (RRT-0.79-0.84) [3, 13]: 0% | BBI-4000 Assay [3, 14]: 2.01% | BBI-4000 Main Hydrolysis Products (RRT-0.79-0.84) [3, 14]: 0% | Change from Baseline (40° C./75%), reduction ([3]; Solvent Content: 100% Ethanol): <1% | BBI-4000 Assay [3, 15]: 1.99% | BBI-4000 Main Hydrolysis Products (RRT-0.79-0.84) [3, 15]: 0% | BBI-4000 Assay [3, 16]: 1.91% | BBI-4000 Main Hydrolysis Products (RRT-0.79-0.84) [3, 16]: 1.90% | BBI-4000 Assay [3, 17]: 1.80% | BBI-4000 Main Hydrolysis Products (RRT-0.79-0.84) [3, 17]: 7.42% | Change from Baseline (40° C./75%), reduction ([3]; Solvent Content: 100% Water): 9.5% | BBI-4000 content (assay number) ([4]; differing pH, Day 7 at 40° C. vs Time-Zero): decreased | Hydrolytic degradation products (two zwitterion stereoisomers, RRT 0.84 and RRT 0.80) ([4]; Day 7 at 40° C.): noticeably increased | Histopathology analysis of treated skin (Gottingen Minipigs): unremarkable and identical to non-treated and vehicle treated skin | Reduction in gravimetrically measured sweat production compared to vehicle ([5]; Cohort 2, baseline to Day 15): greater reduction | Proportion of subjects with at least a 50% reduction in sweat production ([5]; Day 15, aggregate of 5% and 10% gel (9 of 12)): 75%

Reference: patent publication US12156865B2, “Formulation for soft anticholinergic analogs” (Bodor Laboratories, Inc., priority 2016, dated 2024)
